For this experiment, the target named is T1, Human GRIN1 and human GRIN2B expressing HEK293 cells (Homo sapiens, UniProt Q13224).
T1 construct: host or cells: HEK293
T1 sequence (Q13224 27-1484, other chains not shown): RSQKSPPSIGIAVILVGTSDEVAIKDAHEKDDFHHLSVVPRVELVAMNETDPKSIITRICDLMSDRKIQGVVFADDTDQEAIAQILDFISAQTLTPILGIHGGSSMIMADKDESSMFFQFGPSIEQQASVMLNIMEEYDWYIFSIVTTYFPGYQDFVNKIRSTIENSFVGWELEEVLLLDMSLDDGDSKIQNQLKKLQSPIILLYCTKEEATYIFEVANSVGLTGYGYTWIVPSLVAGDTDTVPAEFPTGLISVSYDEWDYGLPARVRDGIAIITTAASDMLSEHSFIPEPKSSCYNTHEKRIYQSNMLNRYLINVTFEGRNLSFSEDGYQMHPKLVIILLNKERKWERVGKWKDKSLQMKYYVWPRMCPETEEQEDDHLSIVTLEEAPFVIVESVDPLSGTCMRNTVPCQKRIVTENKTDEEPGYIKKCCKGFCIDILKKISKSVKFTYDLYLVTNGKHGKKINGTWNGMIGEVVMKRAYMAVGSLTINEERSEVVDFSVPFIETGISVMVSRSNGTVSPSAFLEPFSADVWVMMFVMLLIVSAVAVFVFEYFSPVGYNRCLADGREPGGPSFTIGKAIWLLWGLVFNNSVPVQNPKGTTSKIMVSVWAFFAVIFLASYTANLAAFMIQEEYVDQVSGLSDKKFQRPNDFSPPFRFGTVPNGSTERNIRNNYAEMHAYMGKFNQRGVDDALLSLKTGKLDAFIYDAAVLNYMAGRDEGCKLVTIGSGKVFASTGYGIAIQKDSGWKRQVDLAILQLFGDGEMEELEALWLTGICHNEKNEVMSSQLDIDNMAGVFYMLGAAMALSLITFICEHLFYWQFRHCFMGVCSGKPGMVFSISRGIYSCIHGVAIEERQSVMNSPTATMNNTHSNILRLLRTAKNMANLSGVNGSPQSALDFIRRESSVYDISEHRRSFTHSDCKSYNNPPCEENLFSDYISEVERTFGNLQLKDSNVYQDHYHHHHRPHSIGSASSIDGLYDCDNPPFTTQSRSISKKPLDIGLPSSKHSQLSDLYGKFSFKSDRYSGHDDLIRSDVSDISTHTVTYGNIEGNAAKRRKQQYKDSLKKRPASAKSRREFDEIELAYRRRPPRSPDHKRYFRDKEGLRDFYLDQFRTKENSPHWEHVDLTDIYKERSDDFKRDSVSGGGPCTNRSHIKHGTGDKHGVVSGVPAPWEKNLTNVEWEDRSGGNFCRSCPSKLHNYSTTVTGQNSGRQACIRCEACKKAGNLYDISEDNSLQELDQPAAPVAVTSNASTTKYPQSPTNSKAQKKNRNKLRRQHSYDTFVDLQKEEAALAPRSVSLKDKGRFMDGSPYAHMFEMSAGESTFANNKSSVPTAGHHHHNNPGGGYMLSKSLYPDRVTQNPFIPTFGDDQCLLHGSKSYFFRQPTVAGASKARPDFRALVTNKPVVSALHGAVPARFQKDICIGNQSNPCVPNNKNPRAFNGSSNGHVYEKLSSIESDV
The experiment in a line: NR2B Ca2+ flux assay. Format: cell-based. Particulars: 10 μM test compound, glutamic acid/glycine stimulated Fluo-4 fluorescence, FLIPR, read-out: inhibitory rate (@10 μM). How it is done:
Experimental Example 1 NR2B Ca^2+ Flux Assay
Human GRIN1 and human GRIN2B expressing HEK293 cells were purchased from ChanTest. The cells were cultured in a DMEM/F-12 (COSMO BIO, 10-092-CM) medium added with 10% FBS (fetal bovine serum, AusGene), 100 units/mL penicillin, 100 μg/mL streptomycin, 500 μg/mL neomycin, 100 μg/mL Zeocin, 5 μg/mL Blasticidin at 37° C., 5% CO2. The cells were detached from flask with trypsin the day before the assay, suspended in a seeding medium (DMEM (Invitrogen, 31053) added with 10% FBS, 100 units/mL penicillin, 100 μg/mL streptomycin) at 8×10^5 cells/mL, seeded by 25 μL per well in a 384-well plate (Falcon, 356663) at 20000 cells/well, and cultured overnight in an incubator. On the day of the assay, tetracycline (Wako Pure Chemical Industries, Ltd., 209-16561) was diluted with the seeding medium at 2 μg/mL, added at […] to the plate seeded with the cells, and cultured for 2 hr in an incubator. Thereafter, the medium was removed, and the cells were washed with 50 μL/well assay buffer (137 mM NaCl, 4 mM KCl, 1.8 mM CaCl2, 10 mM HEPES (pH 7.2), 10 mM Glucose, 0.1% BSA). Then, a loading buffer (assay buffer added with 2.5 uM Fluo-4AM, 2 mM Amaranth, 1 mM Tartrazine) was added at 25 μL/well, and loading was performed in the incubator for 30 min, and at room temperature for 15 min. A test compound (25 μL) was added, and the cells were stood for 15 min at room temperature. Using FLIPR (Molecular Devices), 25 μL of an assay buffer containing […], 30 μM glycine was added, and the fluorescence signal was measured every 3 seconds for 5 min. The inhibitory activity was calculated as a relative activity value that inhibits 100% of the cumulative value of the fluorescence value of a well added with a buffer free of glutamic acid, glycine, relative to the cumulative value of the fluorescence value of each well.
For orientation: Calcium assays in cells follow changes in intracellular calcium, usually with a dye or a luminescent sensor.
On to `O=C(Cc1cccc2nccn12)Nc1ccc(C(F)(F)F)cc1` [Example 1, 2-(imidazo[1,2-a]pyridin-5-yl)-N-(4-(trifluoromethyl)phenyl)acetamide], for which the inhibition at 10 µM was determined as 91%. On to `COc1ccc(NC(=O)Cc2cccc3nccn23)cc1` [Example 2, 2-(imidazo[1,2-a]pyridin-5-yl)-N-(4-methoxyphenyl)acetamide], for which the inhibition at 10 µM was found to be 91%.

With `CCc1ccc(NC(=O)Cc2cccc3nccn23)cc1` [Example 3, N-(4-ethylphenyl)-2-(imidazo[1,2-a]pyridin-5-yl)acetamide], the inhibition at 10 µM turned out to be 94%. For `O=C(Cc1cccc2nccn12)Nc1ccc(C2CC2)cc1` [Example 4, N-(4-cyclopropylphenyl)-2-(imidazo[1,2-a]pyridin-5-yl)acetamide] the value was 94%; for `O=C(Cc1cccc2nccn12)Nc1ccc(OC(F)(F)F)cc1` [Example 5, 2-(imidazo[1,2-a]pyridin-5-yl)-N-(4-(trifluoromethoxy)phenyl)acetamide], 93%; for `O=C(Cc1cccc2nccn12)Nc1ccc(OC(F)F)cc1` [Example 6, N-(4-(difluoromethoxy)phenyl)-2-(imidazo[1,2-a]pyridin-5-yl)acetamide], 93%. Turning to `O=C(Cc1cccc2nccn12)Nc1ccc(Cl)c(F)c1` [Example 7, N-(4-chloro-3-fluorophenyl)-2-(imidazo[1,2-a]pyridin-5-yl)acetamide], the inhibition at 10 µM worked out at 90%. For `COc1ccc(NC(=O)Cc2cccc3nccn23)cc1F` [Example 8, N-(3-fluoro-4-methoxyphenyl)-2-(imidazo[1,2-a]pyridin-5-yl)acetamide] the value was 92%; for `O=C(Cc1cccc2nccn12)Nc1cc(F)c(F)c(F)c1` [Example 9, 2-(imidazo[1,2-a]pyridin-5-yl)-N-(3,4,5-trifluorophenyl)acetamide], 87%. As for `CCCc1ccc(NC(=O)Cc2cccc3nccn23)cc1` [Example 10, 2-(imidazo[1,2-a]pyridin-5-yl)-N-(4-propylphenyl)acetamide], the inhibition at 10 µM turned out to be 91%. On to `CCc1ccc(NC(=O)Cc2cccc3nccn23)cc1F` [Example 11, N-(4-ethyl-3-fluorophenyl)-2-(imidazo[1,2-a]pyridin-5-yl)acetamide], for which the inhibition at 10 µM is 94%.

In the case of `O=C(Cc1cccc2nccn12)Nc1ccc(C2CC2)c(F)c1` [Example 12, N-(4-cyclopropyl-3-fluorophenyl)-2-(imidazo[1,2-a]pyridin-5-yl)acetamide], the inhibition at 10 µM came to 93%. With `O=C(Cc1cccc2nccn12)Nc1ccc(CC(F)F)cc1` [Example 13, N-(4-(2,2-difluoroethyl)phenyl)-2-(imidazo[1,2-a]pyridin-5-yl)acetamide] the figure was 88%; with `O=C(Cc1cccc2nccn12)Nc1ccc(OC(F)(F)F)c(F)c1` [Example 14, N-(3-fluoro-4-(trifluoromethoxy)phenyl)-2-(imidazo[1,2-a]pyridin-5-yl) acetamide], 92%. For `Cc1ccc(NC(=O)Cc2cccc3nccn23)cc1F` [Example 15, N-(3-fluoro-4-methylphenyl)-2-(imidazo[1,2-a]pyridin-5-yl)acetamide], the inhibition at 10 µM worked out at 91%.

For `O=C(Cc1cccc2nccn12)Nc1ccc(I)cc1` [Example 16, 2-(imidazo[1,2-a]pyridin-5-yl)-N-(4-iodophenyl)acetamide], the inhibition at 10 µM came out at 91%. Consider `O=C(Cc1cccc2nccn12)Nc1ccc(OC(F)F)c(F)c1` [Example 17, N-(4-(difluoromethoxy)-3-fluorophenyl)-2-(imidazo[1,2-a]pyridin-5-yl)acetamide], for which the inhibition at 10 µM is 93%. Take `CCOc1ccc(NC(=O)Cc2cccc3nccn23)cc1F` [Example 18, N-(4-ethoxy-3-fluorophenyl)-2-(imidazo[1,2-a]pyridin-5-yl)acetamide]: the inhibition at 10 µM worked out at 91%. `COc1c(F)cc(NC(=O)Cc2cccc3nccn23)cc1F` [Example 19, N-(3,5-difluoro-4-methoxyphenyl)-2-(imidazo[1,2-a]pyridin-5-yl)acetamide]: the inhibition at 10 µM amounted to 91%. On to `Cc1cnc2cccc(CC(=O)Nc3ccc(C(F)(F)F)cc3)n12` [Example 20, 2-(3-methylimidazo[1,2-a]pyridin-5-yl)-N-(4-(trifluoromethyl)phenyl)acetamide], for which the inhibition at 10 µM was 74%. Regarding `O=C(Cc1cccc2nccn12)Nc1ccc(F)c(C(F)F)c1` [Example 21, N-(3-(difluoromethyl)-4-fluorophenyl)-2-(imidazo[1,2-a]pyridin-5-yl)acetamide], the inhibition at 10 µM came to 56%.

On to `Cc1cn2c(CC(=O)Nc3ccc(C(F)(F)F)cc3)cccc2n1` [Example 23, 2-(2-methylimidazo[1,2-a]pyridin-5-yl)-N-(4-(trifluoromethyl)phenyl)-acetamide], for which the inhibition at 10 µM was 81%. Take `COc1ccc(NC(=O)Cc2cccc3nccn23)cn1` [Example 24, 2-(imidazo[1,2-a]pyridin-5-yl)-N-(6-methoxypyridin-3-yl)acetamide]: the inhibition at 10 µM is 62%. With `O=C(Cc1cccc2nccn12)Nc1ccccc1` [Example 26, 2-(imidazo[1,2-a]pyridin-5-yl)-N-phenylacetamide] the figure was 53%; with `O=C(Cc1cccc2nccn12)Nc1ccc(F)cc1F` [Example 27, N-(2,4-difluorophenyl)-2-(imidazo[1,2-a]pyridin-5-yl)acetamide], 66%. With `O=C(Cc1cccc2nccn12)Nc1ccc(F)c(F)c1` [Example 29, N-(3,4-difluorophenyl)-2-(imidazo[1,2-a]pyridin-5-yl)acetamide], the inhibition at 10 µM came out at 88%. `Cc1cccc(NC(=O)Cc2cccc3nccn23)c1` [Example 30, 2-(imidazo[1,2-a]pyridin-5-yl)-N-(3-methylphenyl)acetamide]: the inhibition at 10 µM turned out to be 50%. With `N#Cc1ccc(NC(=O)Cc2cccc3nccn23)cc1` [Example 31, N-(4-cyanophenyl)-2-(imidazo[1,2-a]pyridin-5-yl)acetamide] the figure was 78%.

As for `O=C(Cc1cccc2nccn12)Nc1ccc(F)cc1` [Example 32, N-(4-fluorophenyl)-2-(imidazo[1,2-a]pyridin-5-yl)acetamide], the inhibition at 10 µM turned out to be 83%. As for `O=C(Cc1cccc2nccn12)Nc1ccc(Cl)cc1` [Example 33, N-(4-chlorophenyl)-2-(imidazo[1,2-a]pyridin-5-yl)acetamide], the inhibition at 10 µM worked out at 92%.

Consider `O=C(Cc1cccc2nccn12)Nc1ccc(Oc2ccccc2)cc1` [Example 34, 2-(imidazo[1,2-a]pyridin-5-yl)-N-(4-phenoxyphenyl)acetamide], for which the inhibition at 10 µM is 71%. For `Cc1ccc(NC(=O)Cc2cccc3nccn23)cc1` [Example 35, 2-(imidazo[1,2-a]pyridin-5-yl)-N-(4-methylphenyl)acetamide] the value was 90%; for `O=C(Cc1cccc2nccn12)Nc1ccc(C(F)(F)F)cn1` [Example 36, 2-(imidazo[1,2-a]pyridin-5-yl)-N-(5-(trifluoromethyl)pyridin-2-yl)acetamide], 80%.

`O=C(Cc1cccc2nccn12)Nc1ccc(C(F)(F)F)cc1Cl` [Example 37, N-(2-chloro-4-(trifluoromethyl)phenyl)-2-(imidazo[1,2-a]pyridin-5-yl)acetamide]: the inhibition at 10 µM stood at 81%.

As to `O=C(Cc1cccc2nccn12)Nc1ccc(OCC(F)(F)F)cc1` [Example 38, 2-(imidazo[1,2-a]pyridin-5-yl)-N-(4-(2,2,2-trifluoroethoxy)phenyl)-acetamide], the inhibition at 10 µM was 82%. With `O=C(Cc1cccc2nccn12)Nc1ccc(C(F)(F)F)c(Cl)c1` [Example 39, N-(3-chloro-4-(trifluoromethyl)phenyl)-2-(imidazo[1,2-a]pyridin-5-yl)acetamide], the inhibition at 10 µM is 90%. Consider `O=C(Cc1cccc2nccn12)Nc1ccc(C(F)(F)F)cc1F` [Example 43, N-(2-fluoro-4-(trifluoromethyl)phenyl)-2-(imidazo[1,2-a]pyridin-5-yl)acetamide], for which the inhibition at 10 µM worked out at 90%. Consider `O=C(Cc1cccc2nccn12)Nc1ccc(C(F)(F)F)nc1` [Example 44, 2-(imidazo[1,2-a]pyridin-5-yl)-N-(6-(trifluoromethyl)pyridin-3-yl)acetamide], for which the inhibition at 10 µM came out at 71%. For `O=C(Cc1cccc2nccn12)Nc1cnc(C(F)(F)F)nc1` [Example 47, 2-(imidazo[1,2-a]pyridin-5-yl)-N-(2-(trifluoromethyl)-pyrimidin-5-yl)acetamide] the value was 52%.

The record behind these values is patent US10202376B2, “Heterocyclic compound” (Takeda Pharmaceutical Company Limited, priority 2014, dated 2019).
